Reference: US5798365A, “Substituted quinoline derivatives, a process for their preparation, and their use” (Hoechst Aktiengesellschaft, priority 1994, dated 1998)
In brackets after ≈: the same amount, converted by molar mass. Where two headings read alike, the source gives them in different places.

What was measured:
[1] = target: T1, HIV reverse transcriptase (Human immunodeficiency virus type 1 group M subtype B, UniProt P04585); assay: Inhibition of HIV reverse transcriptase, scintillation proximity assay (SPA); type: biochemical; details: RT-SPA, 60 min, 37° C., read-out: Reverse Transcriptase Asaay IC-50 (converted)
T1 construct: purchased HT-Biotechnology LTD, Cambridge, UK; host or cells: E. coli
Procedure: Investigation of the ability of the substances to inhibit the HIV reverse transcriptase
The activity of the reverse transcriptase (RT) was measured by means of a scintillation proximity assay (SPA).
The reagent kit for the RT-SPA was obtained from Amersham/Buchler (Braunschweig). The RT enzyme (originating from HIV and cloned in E. coli) was provided by HT-Biotechnology LTD, Cambridge, UK.
The test was carried out in accordance with the supplier's (Amersham) methods manual--with the following modifications:
bovine serum albumin was added to the assay buffer to a final concentration of 0.5 mg/ml.
The test was carried out in Eppendorf reaction tubes using a mixture volume of […].
The supplier's RT concentrate (5000 U/ml) was diluted in 20 mM tris-HCl buffer; pH 7.2; 30% glycerol to an activity of 15 U/ml.
The assay mixtures were incubated for 60 min (at 37° C.).
After the reaction had been stopped and "developed" using the bead suspension, […] of assay mixture was transferred into 4.5 ml of 10 mM tris-HCl buffer; pH 7.4; 0.15M NaCl
and the tritium activity was measured in a β counter.
In order to carry out a preliminary test for inhibitor activity, the substances were dissolved in DMSO (stock solution concentration=1 mg/ml) and tested at 10^-1, 10^-2, 10^-3, etc. dilutions in DMSO.
In order to determine the IC50 values, the stock solutions of inhibitor were further diluted in 50 mM tris-HCl buffer, pH 8, and tested at suitable concentrations.
The concentration giving rise to 50% inhibition of the enzyme was ascertained from the graphic depiction of RT activity versus log Cinh.

HIV = assay: Testing preparations against HIV in cell culture (infected human donor lymphocytes); type: cell-based; details: for MIC: Human immunodeficiency virus 1, 72 h, lowest concentration without giant cells; for IC50: Human immunodeficiency virus 1, Lymphocyte, 72 h
Procedure: Testing preparations against HIV in cell culture
Description of the method
The complete medium additionally contains 20% foetal calf serum and 40 IU/ml recombinant interleukin 2.
Lymphocytes which have been isolated from fresh donor blood by means of Ficoll® gradient centrifugation are cultured, at 37° C. for 36 h and under 5% CO2, in complete medium in the added presence of […] phytohemagglutinin (Wellcome). After the addition of 10% DMSO, the cells are frozen at a cell density of 5×10^6 and stored in liquid nitrogen. For the experiment, the cells are thawed, washed in RPMI medium and cultured for 3-4 days in complete medium.
The preparations for testing were dissolved in DMSO at a concentration of 16.7 mg/ml and diluted to 1 mg/ml in complete medium. 0.4 ml of medium was initially introduced in 24-well multiwell plates. After 0.1 ml of the dissolved preparation had been added to the upper row of the plate, a geometrical dilution series was produced by transferring 0.1 ml on each occasion. Preparation-free controls always contained 0.4 ml of complete medium containing 0.5% DMSO.
Lymphocyte cultures having a cell count of 5×10^5 cells/ml were infected by adding a 1/50 volume of the supernatant from lymphocyte cultures infected with HIV. The titer of these culture supernatants was determined, by end point dilution, to be 1-5×10^6 infectious units/ml. After incubating at 37° C. for 30 min, the infected lymphocytes were centrifuged off and taken up once again in the same volume of medium. 0.6 ml of this cell suspension was added to each of the wells in the test plate. The assay mixtures were incubated at 37° C. for 3 days.
The infected cell cultures were examined under the microscope for the presence of giant cells, which indicate that the virus is multiplying actively in the culture. The lowest preparation concentration at which no giant cells appeared was defined as the inhibitory concentration against HIV (MIC value). As a control, the presence of HIV antigen in the supernatants from the culture plates was determined using a test for HIV antigen in accordance with the manufacturer's (Organon) instructions.

[2] = HIV-infected lymphocytes, 3 days, 37° C.
[3] = HIV-infected lymphocytes, 3 days, 37° C., read-out: IC-50

SMILES	IC50 ([1]; molar value in parentheses) [nM]	IC50 [1] [nM]	MIC (HIV; [2]) [µg/mL]	IC50 (HIV; [3]) [µg/mL]	IC50 (HIV; HIV-infected lymphocytes, 3 days, unit as printed for compound 66, read-out: IC-50) [µg/mL]	IC50 (HIV) [µg/mL]
COc1ccc2c(c1)C(=CC(C)C)C(C)(C)C(=S)N2 [Compound 61]	62	61.7	0.02 (≈ 0.0726 µM)	~0.004 (≈ 0.0145 µM)	–	–
COc1ccc2c(c1)C(=CCC(C)C)C(C)(C)C(=O)N2 [Compound 66]	70	69.5	< 0.1	–	~0.01 (≈ 0.0366 µM)	–
CC(C)CC=C1c2ccccc2NC(=O)C12CCCC2 [Compound 67]	91	89.1	< 0.1	~0.02 (≈ 0.0742 µM)	–	–
COc1ccc2c(c1)C(=CCC(C)C)C(C)(C)C(=S)N2 [Compound 69]	18	17.3	< 0.02	–	–	~0.0018 (≈ 0.00622 µM)
CC(C)CC=C1c2ccccc2NC(=S)C12CCCC2 [Compound 70]	21	21	0.02 (≈ 0.0701 µM)	~0.003 (≈ 0.0105 µM)	–	–
CC/C=C1\c2cc(Cl)ccc2NC(=S)C1(C)C [Compound 71]	5	3.76	0.0016 (≈ 0.00602 µM)	–	–	–
CCC/C=C1\c2cc(Cl)ccc2NC(=O)C1(C)C [Compound 73, E-4-n-butylene-6-chloro-3,4-dihydro-3,3-dimethylquinolin-2(1H)-one]	30	30.3	< 0.04	0.02 (≈ 0.0758 µM)	–	–
CCC/C=C1\c2cc(Cl)ccc2NC(=S)C1(C)C [Compound 75, E-4-n-butylene-6-chloro-3,4-dihydro-3,3-dimethylquinolin-2(1H)-thione]	–	< 3.57	0.004 (≈ 0.0143 µM)	~0.0018 (≈ 0.00643 µM)	–	–
COc1ccc2c(c1)C(=C1CCCC1)C(C)(C)C(=O)N2 [Compound 138]	–	225	> 0.2	0.03 (≈ 0.111 µM)	–	–
COc1ccc2c(c1)C(=C1CCCC1)C(C)(C)C(=S)N2 [Compound 140]	–	17.4	0.2 (≈ 0.696 µM)	0.006 (≈ 0.0209 µM)	–	–
CCOC(=O)/C=C1\c2cc(Cl)ccc2NC(=S)C1(C)C [Compound 142]	–	123	< 0.2	0.004 (≈ 0.0129 µM)	–	–
